From paper PMC9597602, “Metal Complexes as Antifungals? From a Crowd-Sourced Compound Library to the First In Vivo Experiments” (JACS Au, 2022)
Entries after “also recorded” stand apart in the source; their conditions may differ. Like-named read-outs stand apart in the source and are kept apart here.

Experiments:
[1] = system: Acinetobacter baumannii ATCC 19606 type strain; test: CO-ADD antibacterial MIC assay; type: cell-based; conditions: initial CO-ADD dose-response screening; ≥80% growth inhibition
How it was run: (§1)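 Broth microdilution: compounds exposed for 18 h at 37 °C, static, to 5 × 10^5 CFU/mL of mid-log bacteria in cation-adjusted MH broth. OD600 defines MIC as lowest concentration with ≥80% inhibition; n = 4 (2 technical × 2 biological).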

[2] = system: Escherichia coli ATCC 25922 FDA control strain; test: CO-ADD antibacterial MIC assay; type: cell-based; conditions: initial CO-ADD dose-response screening; ≥80% growth inhibition
How it was run: as §1

[3] = system: Pseudomonas aeruginosa ATCC 27853 QC control strain; test: CO-ADD antibacterial MIC assay; type: cell-based; conditions: initial CO-ADD dose-response screening; ≥80% growth inhibition
How it was run: as §1

[4] = system: Cryptococcus neoformans H99 ATCC 208821 type strain; test: Antifungal MIC assay; type: cell-based; conditions: for MIC Cryptococcus neoformans ATCC 208821 / MIC50 Cryptococcus neoformans ATCC 208821: extended panel; for MIC Cryptococcus neoformans ATCC 208821: second batch, ≥80 or ≥50% inhibition; for MIC50 Cryptococcus neoformans ATCC 208821: 50% inhibition, MIC score 2; for MIC: Cryptococcus neoformans, ATCC208821, comparator antifungals, read-out: MIC* Cryptococcus neoformans ATCC 208821
How it was run: (§2)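 YNB broth; inoculum 2.5 × 10^3 CFU/mL final; 35 °C, 36 h, no shaking; MIC at ≥80% inhibition (CLSI M27 score 0–1); n = 4–8.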

[5] = system: HEK-293 human embryonic kidney cells ATCC CRL-1573; conditions: for HEK CC50: initial CO-ADD screening, 20 h; for CC50: read-out: HEK293 CC50, ranges obtained upon retesting, new batch
Protocol: The cells were incubated together with the compounds for 20 h at 37 °C in 5% CO2. […] Tamoxifen (Sigma T5648) was used as internal control on each plate.

human red blood cells = type: cell-based
How it was run: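 Washed human erythrocytes at 0.5 × 10^8 cells/mL incubated with compound, then centrifuged. Haemolysis read as supernatant OD405, normalised to untreated cells (0%) and 1% Triton X-100 (100%), with melittin as internal plate control.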

[6] = system: Candida auris CBS10913 JCM 15448; test: Antifungal MIC assay, extended panel; type: cell-based; conditions: for MIC: read-out: MIC* Candida auris CBS10913; for MIC50 Candida auris CBS10913: 50% inhibition, MIC score 2
How it was run: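 This broth dilution MIC test for yeast used colonies cultured 3 days at 30 °C on YPD agar, suspended to 1 × 10^6 to 5 × 10^6 CFU/mL by OD530 and diluted with YNB. Cells were added at a final 2.5 × 10^3 CFU/mL (50 μL total) to 384-well plates with compound, incubated unshaken at 35 °C for 36 h, with fluconazole as an internal control on every plate.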

[7] = system: Candida auris CBS12373 KCTC 17810; test: Antifungal MIC assay, extended panel; type: cell-based; conditions: for MIC: read-out: MIC* Candida auris CBS12373; for MIC50 Candida auris CBS12373: 50% inhibition, MIC score 2
How it was run: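 This broth microdilution MIC test followed the reference method for antifungal susceptibility testing of yeasts. Fluconazole served as the internal control on every plate. Inoculum came from 3-day YPD agar cultures, was diluted in YNB to 2.5 × 10^3 CFU/mL in 50 μL per well of 384-well plates, and was incubated 36 h at 35 °C. Compounds ran as two technical replicates across two to four independent assays.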

[8] = system: Candida glabrata ATCC 90030 NCCLS 84; test: Antifungal MIC assay, extended panel; type: cell-based; conditions: extended panel, second batch; ≥80 or ≥50% inhibition
How it was run: as §2

[9] = system: Candida tropicalis ATCC 750; test: Antifungal MIC assay, extended panel; type: cell-based; conditions: extended panel, second batch; ≥80 or ≥50% inhibition
How it was run: as §2

[10] = system: Cryptococcus deuterogattii ATCC 32609 VGII; test: Antifungal MIC assay, extended panel; type: cell-based; conditions: extended panel, second batch; ≥80 or ≥50% inhibition
[11] = system: Cryptococcus deuterogattii CBS7750 VGII; Serotype B; test: Antifungal MIC assay, extended panel; type: cell-based; conditions: extended panel, second batch; ≥80 or ≥50% inhibition
How it was run: as §2

G. mellonella larvae = test: Galleria mellonella in vivo toxicity assay; conditions: 10 μL of the highest concentration injected, monitored 6 days
Protocol: Based on criteria of overall antifungal activity, cytotoxicity, and hemolysis as well as compound availability, we selected compounds Co1, Ag2, Eu1, Ir1, Pt1, Pt2, Pt4, Pt5, Au1, Au2, and Au4 to conduct a preliminary in vivo toxicity assay. […] The compounds were dissolved in DMSO and diluted to the highest possible final concentration (Table 3). The larvae were then monitored for 6 days for survival and health using the G. mellonella Health Index Scoring System.[111] […] For the other compounds, no detrimental effects could be observed in the larvae over the monitoring period. […] Nevertheless, factors such as the metabolism, excretion, and/or accumulation of the various metal complexes and their metabolites will still need to be studied more rigorously in rodent models if they are to be advanced into the preclinical pipeline.
The toxicity of compounds was tested in vivo using the G. mellonella model using our previously described methods,[61] Briefly, G. mellonella larvae were reared in a controlled environmental room at Macquarie University, Sydney, Australia, at 30 °C and 65% humidity with a 12-h light/dark cycle. Larvae (200–250 mg) were individually injected with 10 μL of chemical into the last right pro-leg using a 100 μL syringe (Hamilton Ltd.). Each compound was dissolved in DMSO at the maximum concentration given in Table 3 and also diluted in water to final concentrations of 100, 10, and 1 μM. We injected five larvae in triplicate for each of the four dilutions for each compound. Larvae injected with different dilutions of DMSO (10^–1, 10^–2, and 10^–3) were included as negative controls. Following injection, the larvae were incubated at 30 °C and monitored every 24 h for 6 days. Larval performance was assessed according to the G. mellonella Health Index Scoring System.[111] The experiments were repeated over three separate days for biological triplicates.

[12] = system: Candida glabrata ATCC 90030 NCCLS 84; test: Antifungal MIC assay, extended panel; type: cell-based; conditions: extended panel; 50% inhibition, MIC score 2
[13] = system: Candida tropicalis ATCC 750; test: Antifungal MIC assay, extended panel; type: cell-based; conditions: extended panel; 50% inhibition, MIC score 2
[14] = system: Cryptococcus deuterogattii CBS7750 VGII; Serotype B; test: Antifungal MIC assay, extended panel; type: cell-based; conditions: extended panel; 50% inhibition, MIC score 2
[15] = system: Cryptococcus deuterogattii ATCC 32609 VGII; test: Antifungal MIC assay, extended panel; type: cell-based; conditions: extended panel; 50% inhibition, MIC score 2
[16] = system: Candida albicans ATCC 90028 NCCLS11; test: Antifungal MIC assay; type: cell-based; conditions: for MIC: Candida albicans, ATCC90028, comparator antifungals, read-out: MIC* Candida albicans ATCC 90028
How it was run: as §2

C. albicans (ATCC 90028) [17] = test: Galleria mellonella infection (survival) assay; type: in vivo, Candida albicans in Galleria mellonella larvae; conditions: G. mellonella inoculated with C. albicans, 10 μL compound solution, 5 days, vs untreated control
Protocol: In an initial survival assay, G. mellonella larvae were inoculated with C. albicans (ATCC 90028). The larvae were then injected with 10 μL of the compound solution, and their survival was monitored for the next 5 days. Fluconazole and 10% DMSO injections were used as controls.
The globally available strains for C. albicans and C. neoformans, namely, ATCC 90028 and H99, respectively, were used to assess the antifungal potential of the panel of cobalt complex compounds in the G. mellonella insect model. Each strain was cultured on Sabouraud dextrose agar (SDA) for 24–48 h at 27 °C prior to inoculation. Yeast colonies were then suspended in a phosphate-buffered saline solution (PBS), and cells’ concentrations were adjusted using a Neubauer counting chamber to 5 × 10^7 cells for ATCC 90028 and 1 × 10^8 cells for H99. Compounds were prepared by dissolving in 100% dimethylsulfoxide (DMSO) to 4 or 10 mM depending on compound solubility before being further diluted with water to 0.4 or 1 mM for injection into larvae.
Each group of larvae was subsequently incubated at 37 °C for 2 h in 90 mm Petri dishes. After incubation, larvae were injected with 10 μL of the compound into the last right pro-leg and returned to Petri dishes to incubate at 37 °C for 5 days. In addition to the panel of metal compounds, fluconazole (FLC) was included as a positive control (1 and 0.4 mM) and reference antifungal. Larvae inoculated with just the fungal strains and the fungal strains with 10% DMSO were also included as comparison groups. Larvae injected concurrently with PBS instead of fungal inoculum and compounds were used as negative controls. All larvae were checked daily for survival.

C. albicans (ATCC 90028) [18] = test: Galleria mellonella infection (log CFU reduction) assay; type: in vivo, Candida albicans in Galleria mellonella larvae; conditions: 1 mM, 10 μL; Pt1 19 mg/kg, Pt2 28 mg/kg, fluconazole 12 mg/kg; 24 h at 37 °C; vs 10% DMSO control
Protocol: To quantify the possible protective effect of Pt1 and Pt2 in G. mellonella challenged with C. albicans, we conducted a CFU reduction assay with these compounds. Briefly, G. mellonella larvae were inoculated with C. albicans (ATCC 90028) and incubated for 2 h at 37 °C. The larvae were then injected with 10 μL of the corresponding compound solution (1 mM) or control (same concentration and injection volume) and incubated for 24 h at 37 °C. The larvae were then anesthetized, macerated, and serially diluted onto SDA (Sabouraud dextrose agar) plates. After 48 h of incubation, the CFUs were counted.
A log CFU reduction assay was conducted for two compounds and two control groups. […] Fluconazole (1 mM) and 10% DMSO were used once again as the control groups. Fifteen G. mellonella larvae (200–250 mg) per test group were selected and inoculated with 10 μL of C. albicans at a concentration of 5 × 10^7 cells/mL and incubated on 90 mm Petri dishes in groups of five larvae for 2 h at 37 °C. Larvae were then subsequently injected with 10 μL of the corresponding test compound or control and returned to Petri dishes to incubate for 24 h at 37 °C.
Larvae were then anesthetized on ice for 5 to 10 min before being placed in individual prefilled 2 mL tubes with 3.0 mm diameter zirconium beads with 1000 μL of PBS. They were then macerated briefly using the BeadBug 6 Homogenizer (Benchmark Scientific, USA) in two 45 s intervals at 4350 rpm. After homogenization, serial dilutions of 1:100, 1:1000, and 1:10,000 were then made for each larva/tube, and 100 μL of the dilution was spread plated onto SDA plates with 50 μg/mL chloramphenicol. Plates were then incubated at 27 °C for 48 h before CFUs were counted.
A one-way ANOVA was conducted to compare the CFU counts for Pt1, Pt2, and both controls. After a significant difference was observed between the groups, a subsequent Tukey’s pairwise test was used to compare the individual test groups with each other.

[19] = system: methicillin-resistant Staphylococcus aureus ATCC 43300; test: CO-ADD antibacterial MIC assay; type: cell-based; conditions: initial CO-ADD dose-response screening; ≥80% growth inhibition
How it was run: as §1

[20] = system: human ovarian carcinoma cell line A2780; conditions: cited from earlier work
[21] = initial CO-ADD screening, 1 h, 10% hemolysis
[22] = ranges obtained upon retesting, new batch
[23] = extended panel, second batch, ≥80 or ≥50% inhibition
[24] = ≥80% inhibition, converted with MW of Table S12
[25] = Candidozyma auris, comparator antifungals, MIC = ≥80% inhibition
[26] = Candidozyma auris, comparator antifungals, ≥80% inhibition, converted with MW of Table S12
[27] = initial CO-ADD dose-response screening, ≥80% growth inhibition

c1ccc([PH]([Au][S]c2ccccn2)(c2ccccc2)c2ccccc2)cc1 [Au2]
MIC Ab [1]: >32 µg/mL
MIC Ec [2]: >32 µg/mL
MIC Pa [3]: >32 µg/mL
MIC Cryptococcus neoformans ATCC 208821 [4]: 0.024 to 0.195 µM
MIC50 Cryptococcus neoformans ATCC 208821 [4]: 0.024 to 0.195 µM
HEK CC50 [5]: >32 µg/mL
CC50 [5]: 0.8 to 200 µM
RBC HC10 (human red blood cells; [21]): >32 µg/mL
RBC HC10 (human red blood cells; [22]): > 200 µM
MIC [6, 23]: 0.195 µM
MIC50 Candida auris CBS10913 ([6]; extended panel): 0.098 to 1.56 µM
MIC [7, 23]: 0.195 µM
MIC50 Candida auris CBS12373 ([7]; extended panel): 0.098 to 0.195 µM
MIC [8]: >200 µM
MIC [9]: >200 µM
MIC Cryptococcus deuterogattii ATCC 32609 [10]: 0.049 to 0.391 µM
MIC [11]: 0.098 µM
toxicity (G. mellonella larvae): showed signs of toxicity; also recorded: toxic at 1 mM
MIC50 Candida glabrata ATCC 90030 [12]: > 200 µM
MIC50 Candida tropicalis ATCC 750 [13]: ≥ 200 µM
MIC50 Cryptococcus deuterogattii CBS7750 [14]: 0.049 to 1.56 µM
MIC50 Cryptococcus deuterogattii ATCC 32609 [15]: 0.049 to 0.195 µM

OC(Cn1cncn1)(Cn1cncn1)c1ccc(F)cc1F [Fluconazole, reference compound]
MIC ([16]; MIC = ≥80% inhibition): 0.004 µg/mL
MIC [16, 24]: 0.018 µM
MIC ([4]; MIC = ≥80% inhibition): 2 to 4 µg/mL
MIC [4, 24]: 9.25 to 18.5 µM
MIC [6, 25]: ≤ 0.004 µg/mL
MIC [6, 26]: ≤ 0.018 µM
MIC [7, 25]: ≤ 0.004 µg/mL
MIC [7, 26]: ≤ 0.018 µM
larva survival (C. albicans (ATCC 90028) [17]): significant larva survival
reduction in CFUs (C. albicans (ATCC 90028) [18]): 1.1 log10

Cc1c(C)c(C)[c-](C)c1C.Cc1c(C)c(C)[c-](C)c1C.[Cl-].[Cl-].[Cl-].[Cl-].[Rh+3].[Rh+3] [Rh1]
MIC Ab [1]: >32 µg/mL
MIC Ec [2]: >32 µg/mL
MIC Pa [3]: >32 µg/mL
MIC MRSA (Sa) [19]: >32 µg/mL
MIC Candida albicans ATCC 90028 [16, 23]: 0.39 to 1.56 µM
MIC50 Candida albicans ATCC 90028 ([16]; extended panel, 50% inhibition, MIC score 2): 0.391 to 1.56 µM
MIC Ca [16, 27]: 4 µg/mL
MIC Cryptococcus neoformans ATCC 208821 [4]: 0.195 to 0.391 µM
MIC50 Cryptococcus neoformans ATCC 208821 [4]: 0.195 to 0.391 µM
MIC Cn [4, 27]: 2 µg/mL
HEK CC50 [5]: >32 µg/mL
CC50 [5]: > 200 µM
cytotoxicity: none up to stated concentration ([5]; retest): > 200 µM
RBC HC10 (human red blood cells; [21]): >32 µg/mL
RBC HC10 (human red blood cells; [22]): 0.4 to 3 µM
MIC Candida auris CBS10913 [6, 23]: 0.781 to 1.56 µM
MIC50 Candida auris CBS10913 ([6]; extended panel): 0.781 to 1.56 µM
MIC [7, 23]: 0.78 µM
MIC50 Candida auris CBS12373 ([7]; extended panel): 0.391 to 0.781 µM
MIC [8]: 6.25 µM
MIC Candida tropicalis ATCC 750 [9]: 0.391 to 0.781 µM
MIC Cryptococcus deuterogattii ATCC 32609 [10]: 0.781 to 1.56 µM
MIC [11]: 0.391 µM
MIC50 Candida glabrata ATCC 90030 [12]: 0.391 to 6.25 µM
MIC50 Candida tropicalis ATCC 750 [13]: 0.391 to 0.781 µM
MIC50 Cryptococcus deuterogattii CBS7750 [14]: 0.391 µM
MIC50 Cryptococcus deuterogattii ATCC 32609 [15]: 0.78 to 1.56 µM
IC50 [20]: 7.3 ± 1.5 µM
